# Source: US11117905B2, “Bisaryl heterocycles as NRF2 activators” (GLAXOSMITHKLINE INTELLECTUAL PROPERTY DEVELOPMENT LIMITED, priority 2016, dated 2021)
# Test system: NQO1 specific enzyme activity in BEAS-2B cells (marker for NRF2 activation)
# Experiment: BEAS-2B NQO1 MTT Assay
# Format: cell-based
# Conditions: Homo sapiens, BEAS-2B, 48 h, NQO1 specific activity induction, 48 hours with compound
# From the text: NAD(P)H:quinone oxidoreductase 1 (NQO1), also called DT diaphorase, is a homodimeric FAD-containing enzyme that catalyzes obligatory NAD(P)H-dependent two-electron reductions of quinones and protects cells against the toxic and neoplastic effects of free radicals and reactive oxygen species arising from one-electron reductions. The transcription of NQO1 is finely regulated by NRF2, and thus NQO1 activity is a good marker for NRF2 activation. On day one, frozen BEAS-2B cells (ATCC) were thawed in a water bath, counted, and re-suspended at a concentration of 250,000 cells/mL. Fifty microliters of cells were plated in 384 well black clear-bottomed plates. Plates were incubated at 37° C., 5% CO2 overnight. On day two, plates were centrifuged and 50 nL of compound or controls were added to the cells. Plates were then incubated at 37° C., 5% CO2 for 48 hours. On day four, medium was aspirated from the plate and crude cell lysates were made by adding 13 uL of 1× Cell Signaling Technologies lysis buffer with 1 Complete, Mini, EDTA-free Protease Inhibitor Tablet (Roche) for each 10 mL of lysis buffer. After lysis plates were incubated for 20 minutes at room temperature. Two microliters of lysate were removed for use in Cell Titer Glo assay (Promega) and MTT cocktail was prepared (Prochaska et. al. 1998) for measurement of NQO1 activity. Fifty microliters of MTT cocktail is added to each well, plate is centrifuged, and analyzed on an Envision plate reader (Perkin Elmer) using Absorbance 570 nm label for 30 minutes. Product formation was measured kinetically and the pEC50 of NQO1 specific activity induction was calculated by plotting the change in absorbance (Delta OD/min) versus the log of compound concentration followed by 3-parameter fitting.
# pEC50 is the negative log of the EC50.
# EC50s<1 nM (+++++), EC50s 1 nM-10 nM (++++), EC50s 10 nM-100 nM (+++), EC50s 100 nM-1 uM (++), EC50s 1 uM-10 uM (+), EC50s>10 uM (−), or were not determined (ND).
row,Structure (SMILES),EC50
1,"CCn1nnc2c(C)c([C@H](c3cc(CN4C[C@H](C)Cc5ncccc5S4(=O)=O)c(C)s3)C(C)(C)C(=O)O)ccc21 [Example 16, (S)-3-(1-Ethyl-4-methyl-1H-benzo[d][1,2,3]triazol-5-yl)-2,2-dimethyl-3-(5-methyl-4-(((R)-4-methyl-1,1-dioxido-4,5-dihydropyrido[2,3-f][1,2]thiazepin-2(3H)-yl)methyl)thiophen-2-yl)propanoic Acid]",0.001 to 0.01 µM
2,"CC[C@@H]1CN(Cc2nc([C@@H](c3ccc4c(nnn4CC)c3C)C(C)(C)C(=O)Nc3cccnc3)sc2C)S(=O)(=O)c2ncccc2O1 [Example 30, (S)-3-(4-(((R)-4-Ethyl-1,1-dioxido-3,4-dihydro-2H-pyrido[3,2-b][1,4,5]oxathiazepin-2-yl)methyl)-5-methylthiazol-2-yl)-3-(1-ethyl-4-methyl-1H-benzo[d][1,2,3]triazol-5-yl)-2,2-dimethyl-N-(pyridin-3-yl)propanamide]",0.1 to 1 µM
3,"CC[C@@H]1CN(Cc2cc([C@@H](c3ccc4c(nnn4CC)c3C)C(C)(C)C(=O)Nc3cccnc3)sc2C)S(=O)(=O)c2ccccc2O1 [Example 51, (S)-3-(4-(((R)-4-Ethyl-1,1-dioxido-3,4-dihydro-2H-benzo[b][1,4,5]oxathiazepin-2-yl)methyl)-5-methylthiophen-2-yl)-3-(1-ethyl-4-methyl-1H-benzo[d][1,2,3]triazol-5-yl)-2,2-dimethyl-N-(pyridin-3-yl)propanamide]",0.001 to 0.01 µM
4,"CCn1nnc2c(C)c([C@@H](c3cc(CN4C[C@@H](C)Cc5ncccc5S4(=O)=O)n(C)n3)C(C)(C)C(=O)O)ccc21 [Example 23, (R)-3-(1-Ethyl-4-methyl-1H-benzo[d][1,2,3]triazol-5-yl)-2,2-dimethyl-3-(1-methyl-5-(((S)-4-methyl-1,1-dioxido-4,5-dihydropyrido[2,3-f][1,2]thiazepin-2(3H)-yl)methyl)-1H-pyrazol-3-yl)propanoic Acid]",1 to 10 µM
5,"CC[C@@H]1CN(Cc2cc([C@@H](CC(=O)O)c3ccc4c(nnn4CC)c3C)sc2C)S(=O)(=O)c2cccnc2O1 [Example 24, (S)-3-(4-(((R)-4-Ethyl-1,1-dioxido-3,4-dihydro-2H-pyrido[2,3-b][1,4,5]oxathiazepin-2-yl)methyl)-5-methylthiophen-2-yl)-3-(1-ethyl-4-methyl-1H-benzo[d][1,2,3]triazol-5-yl)propanoic Acid]",0.1 to 1 µM
6,"CC[C@H]1Cc2ccc(C(F)(F)F)cc2S(=O)(=O)N(Cc2nc([C@@H](c3ccc4c(nnn4CC)c3C)C(C)(C)C(=O)Nc3cccnc3)sc2C)C1 [Example 48, (S)-3-(4-(((S)-4-Ethyl-1,1-dioxido-8-(trifluoromethyl)-4,5-dihydrobenzo[f][1,2]thiazepin-2(3H)-yl)methyl)-5-methylthiazol-2-yl)-3-(1-ethyl-4-methyl-1H-benzo[d][1,2,3]triazol-5-yl)-2,2-dimethyl-N-(pyridin-3-yl)propanamide]",0.01 to 0.1 µM
7,"CCn1nnc2c(C)c([C@H](c3cc(CN4C[C@@H](C)Cc5ccccc5S4(=O)=O)c(C)s3)C(C)(C)C(=O)Nc3cccnc3)ccc21 [Example 52, (S)-3-(1-Ethyl-4-methyl-1H-benzo[d][1,2,3]triazol-5-yl)-2,2-dimethyl-3-(5-methyl-4-(((S)-4-methyl-1,1-dioxido-4,5-dihydrobenzo[f][1,2]thiazepin-2(3H)-yl)methyl)thiophen-2-yl)-N-(pyridin-3-yl)propanamide]",0.001 to 0.01 µM
8,"CCn1nnc2c(C)c([C@H](c3cc(CN4C[C@@H](C)Cc5ncccc5S4(=O)=O)n(C)n3)C(C)(C)C(=O)O)ccc21 [Example 31, (S)-3-(1-Ethyl-4-methyl-1H-benzo[d][1,2,3]triazol-5-yl)-2,2-dimethyl-3-(1-methyl-5-(((S)-4-methyl-1,1-dioxido-4,5-dihydropyrido[2,3-f][1,2]thiazepin-2(3H)-yl)methyl)-1H-pyrazol-3-yl)propanoic Acid]",0.1 to 1 µM
9,"CC[C@@H]1CN(Cc2cc([C@H](CC(=O)O)c3ccc4c(nnn4CC)c3C)sc2C)S(=O)(=O)c2cccnc2O1 [Example 46, (R)-3-(4-(((R)-4-Ethyl-1,1-dioxido-3,4-dihydro-2H-pyrido[2,3-b][1,4,5]oxathiazepin-2-yl)methyl)-5-methylthiophen-2-yl)-3-(1-ethyl-4-methyl-1H-benzo[d][1,2,3]triazol-5-yl)propanoic Acid]",0.01 to 0.1 µM
10,"CC[C@@H]1CN(Cc2cc([C@@H](c3ccc4c(nnn4CC)c3F)C(C)(C)C(=O)O)sc2Cl)S(=O)(=O)c2ccccc2O1 [Example 53, (R)-3-(5-Chloro-4-(((R)-4-ethyl-1,1-dioxido-3,4-dihydro-2H-benzo[b][1,4,5]oxathiazepin-2-yl)methyl)thiophen-2-yl)-3-(1-ethyl-4-fluoro-1H-benzo[d][1,2,3]triazol-5-yl)-2,2-dimethylpropanoic Acid]",< 0.001 µM
11,"CC[C@@H]1CN(Cc2cc([C@@H](c3ccc4c(nnn4CC)c3C)C(C)(C)C(=O)O)sc2C)Cc2ncccc2O1 [Example 60, (S)-3-(4-(((R)-2-Ethyl-2,3-dihydropyrido[2,3-f][1,4]oxazepin-4(5H)-yl)methyl)-5-methylthiophen-2-yl)-3-(1-ethyl-4-methyl-1H-benzo[d][1,2,3]triazol-5-yl)-2,2-dimethylpropanoic Acid]",0.001 to 0.01 µM
12,"CCn1nnc2c(C)c([C@H](c3nc(CN4C[C@@H](C)Cc5cc(C(F)(F)F)ccc5S4(=O)=O)c(C)s3)C(C)(C)C(=O)O)ccc21 [Example 44, (S)-3-(1-Ethyl-4-methyl-1H-benzo[d][1,2,3]triazol-5-yl)-2,2-dimethyl-3-(5-methyl-4-(((S)-4-methyl-1,1-dioxido-7-(trifluoromethyl)-4,5-dihydrobenzo[f][1,2]thiazepin-2(3H)-yl)methyl)thiazol-2-yl)propanoic Acid]",< 0.001 µM
13,"CC[C@@H]1CN(Cc2cc([C@H](CCc3cn(CC)nn3)C(C)(C)C(=O)O)sc2C)S(=O)(=O)c2cccnc2O1 [Example 58, (R)-3-(4-(((R)-4-Ethyl-1,1-dioxido-3,4-dihydro-2H-pyrido[2,3-b][1,4,5]oxathiazepin-2-yl)methyl)-5-methylthiophen-2-yl)-5-(1-ethyl-1H-1,2,3-triazol-4-yl)-2,2-dimethylpentanoic Acid]",0.001 to 0.01 µM
14,"CC[C@@H]1CN(Cc2nc([C@@H](c3ccc4c(nnn4CC)c3C)C(C)(C)C(=O)O)sc2C)S(=O)(=O)c2cccnc2O1 [Example 26, (S)-3-(4-(((R)-4-Ethyl-1,1-dioxido-3,4-dihydro-2H-pyrido[2,3-b][1,4,5]oxathiazepin-2-yl)methyl)-5-methylthiazol-2-yl)-3-(1-ethyl-4-methyl-1H-benzo[d][1,2,3]triazol-5-yl)-2,2-dimethylpropanoic Acid]",0.001 to 0.01 µM
15,"CC[C@@H]1CN(Cc2cc([C@@H](c3ccc4c(nnn4CC)c3C)C(C)(C)C(=O)O)sc2Cl)S(=O)(=O)c2cccnc2O1 [Example 54, (S)-3-(5-Chloro-4-(((R)-4-ethyl-1,1-dioxido-3,4-dihydro-2H-pyrido[2,3-b][1,4,5]oxathiazepin-2-yl)methyl)thiophen-2-yl)-3-(1-ethyl-4-methyl-1H-benzo[d][1,2,3]triazol-5-yl)-2,2-dimethylpropanoic Acid]",< 0.001 µM
16,"CC[C@@H]1CN(Cc2cc([C@H](CC(=O)O)c3ccc4c(nnn4CC)c3C)sc2Cl)S(=O)(=O)c2cccnc2O1 [Example 6, (R)-3-(5-Chloro-4-(((R)-4-ethyl-1,1-dioxido-3,4-dihydro-2H-pyrido[2,3-b][1,4,5]oxathiazepin-2-yl)methyl)thiophen-2-yl)-3-(1-ethyl-4-methyl-1H-benzo[d][1,2,3]triazol-5-yl)propanoic acid]",0.01 to 0.1 µM

# Same assay, conditions: NQO1 specific activity induction, 48 hours with compound
row,Structure (SMILES),EC50
1,"CC[C@@H]1CN(Cc2cc(C(CC(=O)O)c3ccc4c(nnn4CC)c3C)sc2C)S(=O)(=O)c2ccccc2O1 (single isomer, unassigned; isomer 2) [Example 21, (R or S)-3-(4-(((R)-4-Ethyl-1,1-dioxido-3,4-dihydro-2H-benzo[b][1,4,5]oxathiazepin-2-yl)methyl)-5-methylthiophen-2-yl)-3-(1-ethyl-4-methyl-1H-benzo[d][1,2,3]triazol-5-yl)propanoic Acid Isomer 2]",0.1 to 1 µM
2,"CC[C@@H]1CN(Cc2cc(C(CC(=O)O)c3ccc4c(nnn4CC)c3C)sc2C)S(=O)(=O)c2ccccc2O1 (single isomer, unassigned; isomer 1) [Example 20, (R or S)-3-(4-(((R)-4-Ethyl-1,1-dioxido-3,4-dihydro-2H-benzo[b][1,4,5]oxathiazepin-2-yl)methyl)-5-methylthiophen-2-yl)-3-(1-ethyl-4-methyl-1H-benzo[d][1,2,3]triazol-5-yl)propanoic acid Isomer 1]",0.01 to 0.1 µM
